{
  "source": "patent US20090209474A1",
  "about": "“NOVEL USES FOR DRUGS TARGETING GLUTAMINE SYNTHETASE” (NEWTHERA, priority 2005, published 2009)",
  "key": {"GS (mung bean)": {"molecular_target": "GS (mung bean)", "settings": "cited from earlier work"}, "purified pig brain GS": {"molecular_target": "T1, purified pig brain GS (Sus scrofa, UniProt P46410)", "T1 construct": "Fifty microlitre of purified pig brain GS (3 mg/ml) was added to one peripheral well; from tissue; host or cells: pig brain (purified enzyme)", "T1 sequence (P46410 2-373 limits assumed)": "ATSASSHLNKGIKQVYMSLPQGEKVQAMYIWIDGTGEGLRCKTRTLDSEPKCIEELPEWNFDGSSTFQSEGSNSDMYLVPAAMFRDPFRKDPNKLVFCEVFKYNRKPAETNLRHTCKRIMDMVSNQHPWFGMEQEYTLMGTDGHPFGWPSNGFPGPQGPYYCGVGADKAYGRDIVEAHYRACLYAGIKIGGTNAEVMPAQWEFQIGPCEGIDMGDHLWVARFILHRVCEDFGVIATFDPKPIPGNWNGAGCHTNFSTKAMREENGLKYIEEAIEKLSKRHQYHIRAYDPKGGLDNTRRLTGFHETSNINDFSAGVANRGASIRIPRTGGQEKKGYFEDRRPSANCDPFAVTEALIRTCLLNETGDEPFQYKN", "test": "Interaction of NF and purified pig GS (agarose diffusion, precipitation, spot blot, western blot)", "assay_type": "binding", "method": "Five ml of agarose 0.1% were let to polymerise in a Petri dish. Five wells with equal volume and distance from each other, 1 central and 4 peripherals, were made on it using a 300 μl tip. The central well was filed with 50 μl of NF solution ([…]). Fifty microlitre of purified pig brain GS (3 mg/ml) was added to one peripheral well. In two other wells either 50 μl of TBS or FCS was added. The gel was humidified and left at 37° C. for 48 h.\nThe final concentration of methanol per assay tube was 10% V/V. Fixed (3 mg/ml) or variable (0.023 to 3 mg/ml) concentrations of either purified brain pig GS or rat brain homogenates were added to each assay tube. The tubes were incubated a room temperature for 5 min. Methanol (10%) and FCS were used as negative controls. The tubes were thereafter centrifuged at 700 g. Supernatant was discarded and the pellets were suspended in 100 μl working buffer and incubated for 15 min at 37° C. The reaction was finally stopped and absorbance was measured as described above.\nTwenty μl of agarose gel with precipitated NF/protein complexes issued from diffusion study was applied to methanol activated PVDF membrane. Non-specific binding sites were blocked by 5% low fat skimmed milk in TBS buffer, supplemented with 0.1% tween 20. Transferred proteins were allowed to react with either polyclonal rabbit anti-GS (1/3000) or anti-GR (1/3000) antibodies for 30 min at room temperature. After one quick wash with TBS, 0.1% tween 20, horseradish peroxidase conjugated goat anti-rabbit antibody was subjected (1/5000) to the transferred proteins for 30 min at room temperature.\nTwenty μl per well of precipitated NF/protein complex were separated on 8% SDS-PAGE gel in absence or presence of 2β-mercaptoethanol. The proteins separated in presence or the absence of SDS were thereafter transferred to a nitrocellulose membrane ([…]). Non-specific binding sites were blocked by 5% low fat skimmed milk in TBS buffer, supplemented with 0.1% tween 20. Transferred proteins were thereafter allowed to react with either polyclonal rabbit anti-GS (1/3000) or anti-GR (1/3000) antibodies for 30 min at room temperature. After one quick wash with TBS, 0.1% tween 20, horseradish peroxidase conjugated goat anti-rabbit antibody was subjected (1/5000) to the transferred proteins for 30 min at room temperature."}, "glutamine synthetase": {"molecular_target": "T2, glutamine synthetase (Rattus norvegicus, UniProt P09606)", "T2 construct": "Wistar rat brain homogenates were incubated with naftazone; from tissue; host or cells: Wistar rat brain homogenate or membranes; in A19 also liver and lungs", "T2 sequence (P09606 2-373 limits assumed)": "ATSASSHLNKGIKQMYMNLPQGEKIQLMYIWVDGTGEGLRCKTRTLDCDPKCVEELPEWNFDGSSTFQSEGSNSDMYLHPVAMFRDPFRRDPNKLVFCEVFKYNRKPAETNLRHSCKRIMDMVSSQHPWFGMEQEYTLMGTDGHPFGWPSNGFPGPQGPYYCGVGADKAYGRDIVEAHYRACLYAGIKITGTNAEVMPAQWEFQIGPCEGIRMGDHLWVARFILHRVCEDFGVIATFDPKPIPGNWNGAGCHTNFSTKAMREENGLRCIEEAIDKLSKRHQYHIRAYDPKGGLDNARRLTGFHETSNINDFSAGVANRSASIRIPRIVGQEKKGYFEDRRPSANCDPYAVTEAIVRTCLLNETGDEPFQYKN", "test": "Proteins precipitated by NF from rat brain homogenate (mass spectrometry)", "assay_type": "binding", "settings": "8% gel, native conditions"}, "Wistar rat brain GS": {"molecular_target": "T3, Wistar rat brain GS (Rattus norvegicus, UniProt P09606)", "T3 construct": "from tissue; host or cells: Wistar rat brain homogenate or membranes; in A19 also liver and lungs", "T3 sequence (P09606 2-373 limits assumed)": "as above", "test": "GS activity in Wistar rat brain homogenates", "assay_type": "biochemical", "settings": "in absence of 2β-ME", "method": "GS activity was assessed as mentioned above for purified sheep brain GS."}, "[1]": {"test": "Adrenal weight of rats administered methylprednisolone", "assay_type": "in vivo, Wistar rats", "method": "Wistar rats were administered during 21 days once a day with methyprednisolone (5 mg/kg i.p.) plus GF (0.001, 0.01, 0.1 mg/kg), NF (1 and 10 mg/kg) or vehicle (PCB; i.p). Twenty-four hours after the last administrations, they were euthanatized. A complete necropsy was performed and main organs weighted."}, "GS [2]": {"molecular_target": "GS (Mus musculus, UniProt P15105)", "sequence (P15105 2-373 limits assumed)": "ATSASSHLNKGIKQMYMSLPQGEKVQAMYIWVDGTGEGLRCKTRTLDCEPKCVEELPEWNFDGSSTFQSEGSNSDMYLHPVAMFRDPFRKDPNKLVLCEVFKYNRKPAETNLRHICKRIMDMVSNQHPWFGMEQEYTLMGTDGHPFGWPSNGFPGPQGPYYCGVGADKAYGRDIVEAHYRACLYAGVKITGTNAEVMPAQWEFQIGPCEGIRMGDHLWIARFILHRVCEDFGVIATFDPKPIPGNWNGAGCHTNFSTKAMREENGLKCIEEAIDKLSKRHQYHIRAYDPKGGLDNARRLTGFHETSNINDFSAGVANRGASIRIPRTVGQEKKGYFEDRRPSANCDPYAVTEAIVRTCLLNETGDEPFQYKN", "assay_type": "in vivo, BALB/c mice", "design": "from tissue; host or cells: mouse brain (whole brain, cortex, hippocampus, thalamus/hypothalamus)", "settings": "24 h after single i.p., NF 10 and 100 mg/kg", "method": "(§1) Cortex, hippocampi and thalamus/hypothalamus were carefully isolated immediately after euthanasia. Membranes were prepared and the activity of GS determined in these different structures (as mentioned above for the whole brain)."}, "GS [3]": {"molecular_target": "GS (Rattus norvegicus, UniProt P09606)", "sequence (P09606 2-373 limits assumed)": "as the sequence (P09606 2-373 limits assumed) above", "assay_type": "in vivo, Wistar rats", "design": "from tissue; host or cells: Wistar rat brain homogenate or membranes; in A19 also liver and lungs", "method": "as §1"}},
  "data": [
    {"compound": "NC1(C(=O)O)COC(P(=O)(O)O)C1", "note": "(centres unmarked) [Tetrahydrofuran phosphinothricin, 3-Amino-5-phosphono-tetrahydro-furan-3-carboxylic acid]", "values": [
      {"measurement": "Ki", "setting": "GS (mung bean)", "result": 5000, "unit": "nM"}
    ]},
    {"compound": "NC1(C(=O)O)CCC(P(=O)(O)O)C1", "note": "(centres unmarked) [Cyclopentane phosphinothricin, 1-Amino-3-phosphono-cyclopentane-carboxylic acid]", "values": [
      {"measurement": "Ki", "setting": "GS (mung bean)", "result": 470, "unit": "nM"}
    ]},
    {"compound": "NC(=O)NN=C1C=Cc2ccccc2C1=O", "note": "[NF, 1-oxo, 2 naphtyl semicarbazone]", "values": [
      {"measurement": "interaction between NF and purified pig GS in agarose (0.1%) gel", "setting": "purified pig brain GS; Commassie blue", "result": "revealed a clear precipitated protein"},
      {"measurement": "precipitation of GS protein by different concentration of NF", "setting": "purified pig brain GS; NF 6.3e^−19 to 4.8e^−7 M, GS 3 mg/ml", "result": "precipitated dose dependently GS protein"},
      {"measurement": "identity of the precipitated protein (dotblot)", "setting": "purified pig brain GS; anti-GS antibodies", "result": "revealed specifically glutamine synthetase"},
      {"measurement": "precipitated proteins subjected to rabbit anti-GR antibodies", "setting": "purified pig brain GS; purified pig GS and whole rat brain homogenates", "result": "did not reveal any protein"},
      {"measurement": "presence of G-actin in the isolated band", "setting": "glutamine synthetase", "result": 70, "unit": "%"},
      {"measurement": "presence of glutamine synthetase in the isolated band", "setting": "glutamine synthetase", "result": 30, "unit": "%"},
      {"measurement": "“high” concentration range inhibiting GS activity", "setting": "Wistar rat brain GS", "result": "10^−12 to 10^−14 M"},
      {"measurement": "adrenal weight", "setting": "[1]; GF 0.001, 0.01, 0.1 mg/kg, NF 1 and 10 mg/kg, methyprednisolone 5 mg/kg i.p., 21 days, versus PCB", "result": "higher"},
      {"measurement": "dose relation of the effect on adrenal weight", "setting": "[1]; rat, in vivo", "result": "dose-dependent effect"},
      {"measurement": "GS activity in the hippocampus", "setting": "GS [2]", "result": "trend to an increase of GS activity"},
      {"measurement": "GS activity in the thalamus/hypothalamus", "setting": "GS [2]; GF 1 mg/kg", "result": "decreased"},
      {"measurement": "GS activity in the cortex", "setting": "GS [3]; NF 1 and 10 mg/kg i.p.", "result": "No significant treatment-effect"},
      {"measurement": "GS activity in the hippocampus", "setting": "GS [3]; NF 1 and 10 mg/kg i.p.", "result": "increased GS activity"},
      {"measurement": "GS activity in the thalamus/hypothalamus", "setting": "GS [3]; NF 1 and 10 mg/kg i.p., twenty four hours after administration", "result": "dose-dependently decreased GS activity"},
      {"measurement": "dose of maximum effect on hippocampus GS activity", "setting": "GS [3]; rat, in vivo", "result": 1, "unit": "mg/kg"}
    ]}
  ]
}
